According to ChEMBL document CHEMBL3638502, “Isonicotinamide orexin receptor antagonists” (2013):

Biological target: T1, Orexin receptor type 2 (Homo sapiens, UniProt O43614)
T1 sequence (O43614 whole entry): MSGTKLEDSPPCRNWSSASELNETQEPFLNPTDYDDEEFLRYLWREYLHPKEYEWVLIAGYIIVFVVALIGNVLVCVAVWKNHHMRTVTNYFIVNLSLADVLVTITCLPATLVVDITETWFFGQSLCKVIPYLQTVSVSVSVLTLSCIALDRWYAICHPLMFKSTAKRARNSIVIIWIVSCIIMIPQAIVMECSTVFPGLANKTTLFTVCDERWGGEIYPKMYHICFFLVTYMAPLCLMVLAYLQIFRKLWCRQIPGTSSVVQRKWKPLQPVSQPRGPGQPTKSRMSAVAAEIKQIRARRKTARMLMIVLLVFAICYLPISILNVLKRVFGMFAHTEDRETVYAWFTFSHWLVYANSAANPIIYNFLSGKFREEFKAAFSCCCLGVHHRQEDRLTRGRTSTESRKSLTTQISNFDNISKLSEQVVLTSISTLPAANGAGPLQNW
Assay: FLIPR Ca2+ Flux Assay: Assay methodology using FLIPR Ca2+ Flux Assay (Okumura et al., Biochem. Biophys. Res. Comm. 280:976-981, 2001).
Type: functional

COc1ccc(CNC(=O)c2cc(-c3cncc(C)c3)ncc2-c2ccccc2)nc1OC
Ki: 0.72 nM
